Experiments:
Format in all cases: cell-based
[1] = test system: recombinant Escherichia coli KO11; assay: Batch fermentation of E. coli KO11 in 1% CSL medium and xylose with nutrient additives: ethanol production and cell growth; conditions: 1% CSL+xylose; additive 2 g/L unless indicated
Procedure: (§1) Two types of media were tested: 1% CSL and Luria broth (LB). Each contained 97 g of either xylose or glucose per liter. Luria Broth consists of, per liter: 10 g Difco® Tryptone, 5 g Difco® Yeast Extract and 5 g NaCl. The 1% CSL medium consists of Corn Steep Liquor (1% w/v) plus mineral salts (mineral salts per liter: 1 g of KH2PO4. 0.5 g of K2HPO4, 3.1 g of (NH4)2SO4, 0.4 g of MgCl2·6H2), and 20 mg FeCl3·6H2O).
(§2) Luria Broth was prepared by autoclaving a 2× nutrient stock containing, per liter: 20 g Difco® Tryptone, 10 g Difo® Yeast Extract, and 10 g NaCl. Sugars (xylose or glucose) were autoclaved separately. A 1% CSL medium was prepared as follows: Commercial Corn Steep Liquor (CSL; 50% dry weight/50% water) was diluted with tap water to make a 20X stock containing 100 g dry weight of Corn Steep Liquor/L and was adjusted to pH 7.2 with NaOH (50%). After sterilization by autoclaving, the 20X CSL stock was clarified by centrifugation at 5000×g for 10 minutes. Magnesium was added as a 100× stock solution (40 g/L MgCl2·6H2O). Iron was added as a 1000× stock solution made by dissolving 20 g FeCl3·6H2O in 175 mL of HCl and adjusting to 1 L with sterile water. Nitrogen, sulfur and phosphorus were added using a 20× stock solution containing the following (per liter): 20 g of KH2PO4, 10 g of K2HPO4 and 62 g of (NH4)2SO4. Stock solutions containing minerals were sterilized separately by autoclaving. Final media was prepared by adding 750 mL of water to 1 L bottle containing 100 g of xylose or glucose.
Inocula were grown in same media used for fermentation and were prepared as follows. Three colonies from a fresh plate were used to inoculate seed cultures: 250-mL flask containing 100 mL medium. These cultures were grown with agitation (120 rpm) for 12-16 hours at 35° C. to a final OD550nm of approximately 2.0-2.5. Cells were harvested by centrifugation at 5000×g for 5 minutes, and resuspended in fresh media to an OD550nm of 0.1. The resulting suspension was distributed into 500-mL beakers containing 345 ml each of fermentation medium. Acetaldehyde was added as indicated. Batch fermentations (35° C., 100 rpm) were maintained at pH 6.5 by the automatic addition of 2N KOH. Cell mass, ethanol, and base addition (2N KOH) were recorded during 96 hours of incubation. […]
(§3) Additives (e.g., as listed in Table 1) were dissolved in 5 mL di-H2O. Solutions with pH lower than 5 were neutralized to pH 6.5 with 2N KOH. Nutritional supplements were then filter-sterilized (0.45 μm filter disk) directly into the fermentation vessel containing the culture. The final concentration of all additives in the culture medium was 2 g/L unless otherwise indicated.
(§4) Cell mass was estimated by measuring OD550nm using Baush & Lomb® Spectronic 70 spectrophotometer. […] Ethanol was measured by gas chromatography using a Varian® 3400 CX gas chromatograph with 1-propanol as an internal standard.
(§5) Tables 1, 3, and 5 show time to completion of fermentation, ethanol production, and volumetric productivity of the fermentation for all concentrations of the compound and the control. Maximum ethanol production is shown in grams/liter (g/L). The ethanol yield is shown in grams of ethanol/grams of added sugar. Maximum volumetric productivity is shown in grams ethanol/(liter)(hour). The average productivity is calculated form the start of fermentation to the completion of fermentation is grams ethanol/(liter)hour).
Tables 2, 4, and 6 show the initial growth of the cells (OD taken after the first 24 hours of fermentation) and the maximum cell density (the time which culture reaches the maximum OD value). […]

[2] = test system: recombinant Escherichia coli KO11; assay: Batch fermentation of E. coli KO11 in 1% CSL medium and glucose with nutrient additives: ethanol production and cell growth; conditions: 1% CSL+glucose; additive 2 g/L unless indicated
Procedure: as §1, §2
(§6) Inocula were grown in same media used for fermentation and were prepared as follows. Three colonies from a fresh plate were used to inoculate seed cultures: 250-mL flask containing 100 mL medium. These cultures were grown with agitation (120 rpm) for 12-16 hours at 35° C. to a final OD550nm of approximately 2.0-2.5. Cells were harvested by centrifugation at 5000×g for 5 minutes, and resuspended in fresh media to an OD550nm of 0.1. The resulting suspension was distributed into 500-mL beakers containing 345 ml each of fermentation medium. Acetaldehyde was added as indicated. Batch fermentations (35° C., 100 rpm) were maintained at pH 6.5 by the automatic addition of 2N KOH. Cell mass, ethanol, and base addition (2N KOH) were recorded during 96 hours of incubation.
(§7) Equivalent amounts of distilled water were added instead of the acetaldehyde in control experiments.
as §3, §4, §5
(§8) Tables 2, 4, and 6 show the initial growth of the cells (OD taken after the first 24 hours of fermentation) and the maximum cell density (the time which culture reaches the maximum OD value).
(§9) Acetaldehyde was added to the fermentation medium at five different concentrations and time points. […] Where two additions are indicated, the first volume was added at the start of fermentation and the second was added after 8 hours of fermentation.

[3] = test system: recombinant Escherichia coli KO11; assay: Batch fermentation of E. coli KO11 in Luria broth and xylose with nutrient additives: ethanol production and cell growth; conditions: LB+xylose; additive 2 g/L unless indicated
Procedure: as §1, §2, §6, §7, §3, §4, §5, §8, §9

O=C(O)CCC(=O)C(=O)O [a-KG, α-ketoglutarate]
Ethanol Production Maximum [1]: 42.32 g/L | Ethanol Production Maximum % Control [1]: 140.70% | Ethanol yield [1]: 0.436 grams of ethanol/grams of added sugar | Initial Growth (OD @ 24 h) % Control [1]: 173.77% | Initial Growth (OD @ 24 h) OD [1]: 3.55 OD | Time to completion [1]: 72 h | Ethanol Production Maximum [2]: 40.33 g/L | Ethanol Production Maximum % Control [2]: 109.03% | Ethanol yield [2]: 0.415 grams of ethanol/grams of added sugar | Initial Growth (OD @ 24 h) % Control [2]: 123.05% | Initial Growth (OD @ 24 h) OD [2]: 3.29 OD | Time to completion [2]: 72 h | Ethanol Production Maximum [3]: 42.47 g/L | Ethanol yield [3]: 0.437 grams of ethanol/grams of added sugar | Initial Growth (OD at 24 h) % Control [3]: 102.79% | Initial Growth (OD at 24 h) OD [3]: 10.27 OD | Time to completion [3]: 48 h

N[C@@H](CCC(=O)O)C(=O)O [Glutamate, glutamate]
Ethanol Production Maximum [1]: 43.14 g/L | Ethanol Production Maximum % Control [1]: 143.43% | Ethanol yield [1]: 0.444 grams of ethanol/grams of added sugar | Initial Growth (OD @ 24 h) % Control [1]: 180.49% | Initial Growth (OD @ 24 h) OD [1]: 3.69 OD | Maximum Cell Density % Control [1]: 200.16% | Maximum Cell Density OD [1]: 5.04 OD | Maximum Cell Density Time [1]: 96 h | Time to completion [1]: 96 h | Volumetric Productivity Average [1]: 0.449 grams ethanol/(liter)(hour) | Volumetric Productivity Average % Control [1]: 143.43% | Volumetric Productivity Maximum [1]: 0.665 grams ethanol/(liter)(hour) | Volumetric Productivity Maximum % Control [1]: 180.439% | Ethanol Production Maximum [2]: 43.39 g/L | Ethanol Production Maximum % Control [2]: 117.30% | Ethanol yield [2]: 0.447 grams of ethanol/grams of added sugar | Initial Growth (OD @ 24 h) % Control [2]: 107.10% | Initial Growth (OD @ 24 h) OD [2]: 2.86 OD | Maximum Cell Density % Control [2]: 140.94% | Maximum Cell Density OD [2]: 3.79 OD | Maximum Cell Density Time [2]: 72 h | Time to completion [2]: 72 h | Volumetric Productivity Average [2]: 0.603 grams ethanol/(liter)(hour) | Volumetric Productivity Average % Control [2]: 156.40% | Volumetric Productivity Maximum [2]: 0.763 grams ethanol/(liter)(hour) | Volumetric Productivity Maximum % Control [2]: 148.52% | Ethanol Production Maximum [3]: 44.67 g/L | Ethanol Production Maximum % Control [3]: 103.69% | Ethanol yield [3]: 0.460 grams of ethanol/grams of added sugar | Initial Growth (OD at 24 h) % Control [3]: 106.21% | Initial Growth (OD at 24 h) OD [3]: 10.61 OD | Maximum Cell Density % Control [3]: 96.07% | Maximum Cell Density OD [3]: 10.61 OD | Maximum Cell Density Time [3]: 24 h | Time to completion [3]: 48 h | Volumetric Productivity Average [3]: 0.931 grams ethanol/(liter)(hour) | Volumetric Productivity Average % Control [3]: 103.69% | Volumetric Productivity Maximum [3]: 1.328 grams ethanol/(liter)(hour) | Volumetric Productivity Maximum % Control [3]: 115.30%
